Key:
[1] = molecular target: T1, PAFR (receptor for platelet-activating factor) (Homo sapiens, UniProt P25105); assay: agonist-induced superoxide release (isoluminol chemiluminescence) in human neutrophils, abolished by PAFR antagonist WEB2086; Ca2+ mobilization EC50 […]; assay type: cell-based
T1 construct: gene PTAFR

[2] = molecular target: T1, PAFR (receptor for platelet-activating factor); assay: antagonism of PAF ([…])-induced superoxide release in human neutrophils; assay type: cell-based

T1 sequence (P25105 whole entry): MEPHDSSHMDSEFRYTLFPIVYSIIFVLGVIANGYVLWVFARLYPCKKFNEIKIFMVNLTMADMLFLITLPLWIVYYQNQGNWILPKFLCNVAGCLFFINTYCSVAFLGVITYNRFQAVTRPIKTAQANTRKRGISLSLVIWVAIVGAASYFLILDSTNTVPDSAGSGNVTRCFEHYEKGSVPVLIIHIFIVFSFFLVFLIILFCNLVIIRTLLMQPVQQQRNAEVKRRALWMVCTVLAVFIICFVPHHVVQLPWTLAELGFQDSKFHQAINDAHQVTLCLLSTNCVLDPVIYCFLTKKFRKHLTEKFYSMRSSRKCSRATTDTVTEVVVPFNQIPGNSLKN

| Structure (SMILES) | EC50 [1] | antagonism of PAF (100 nM)-induced superoxide release in human neutrophils [2] |
| --- | --- | --- |
| CCCCCCCCCCCCCCCCOC[C@H](COP(=O)([O-])OCC[N+](C)(C)C)OC(C)=O [PAF] | ~800 nM |  |
| Cc1nnc2n1-c1sc(CCC(=O)N3CCOCC3)cc1C(c1ccccc1Cl)=NC2 [WEB2086] |  | a specific PAFR antagonist (WEB2086) completely and selectively abolished the release of ROS upon PAF stimulation |
